Several values for one entry are separate records, joined by “and”; a condition that tells them apart may be missing. Identical values can stand only once. Toxic doses and inconclusive results are not listed.
Test system: L1210 leukemia ip in BDF1 mice, survival T/C
Experiment: NCI In Vivo Anticancer Drug Screen. Data for tumor model L1210 Leukemia (intraperitoneal) in B6D2F1 (BDF1) mice
Details: endpoint: mean survival time, higher = longer survival
Outline: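 Tumor was transplanted into mice, which were then dosed with test compound or vehicle alone. Survival was recorded for each group, and the treated figure was expressed relative to the control figure.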

[1] = dose: 100.0 mg/kg/injection, schedule: Q04DX003 (ip), vehicle: saline with Tween-80
[2] = dose: 200.0 mg/kg/injection, schedule: Q04DX003 (ip), vehicle: saline with Tween-80
[3] = dose: 400.0 mg/kg/injection, schedule: Q04DX003 (ip), vehicle: saline with Tween-80

Q: With `CCCCC(C(C)=O)C(C)=O` as the compound, how does the T/C (dose: 100.0 mg/kg/injection, schedule: Q01DX009 (ip), vehicle: Klucel (hydroxypropylcellulose) (HPC)) read?
A: 100 % of control

Q: And the T/C (dose: 100.0 mg/kg/injection, schedule: Q04DX002 (ip), vehicle: Klucel (hydroxypropylcellulose) (HPC))?
A: 86 % of control

Q: And the T/C (dose: 200.0 mg/kg/injection, schedule: Q01DX009 (ip), vehicle: Klucel (hydroxypropylcellulose) (HPC))?
A: 100 % of control

Q: What about the T/C (dose: 200.0 mg/kg/injection, schedule: Q04DX002 (ip), vehicle: Klucel (hydroxypropylcellulose) (HPC)) of the same compound?
A: 93 % of control

Q: What about the T/C (dose: 400.0 mg/kg/injection, schedule: Q01DX009 (ip), vehicle: Klucel (hydroxypropylcellulose) (HPC)) of the same compound?
A: 89 % of control

Q: What about the T/C (dose: 400.0 mg/kg/injection, schedule: Q04DX002 (ip), vehicle: Klucel (hydroxypropylcellulose) (HPC)) of the same compound?
A: 86 % of control

Q: Which T/C (dose: 0.47 mg/kg/injection, schedule: Q01DX Z (ip), vehicle: carboxymethylcellulose (CMC)) does the source give for `O=C(Nc1cccc(C2=NCCCN2)c1)Nc1ccc(NC(=O)Nc2cccc(C3=NCCCN3)c2)c(Cl)c1` here?
A: 121 % of control

Q: What about the T/C (dose: 0.93 mg/kg/injection, schedule: Q01DX Z (ip), vehicle: carboxymethylcellulose (CMC)) of the same compound?
A: 118 % of control

Q: And the T/C (dose: 3.75 mg/kg/injection, schedule: Q01DX Z (ip), vehicle: carboxymethylcellulose (CMC))?
A: 156 % of control and 204 % of control

Q: What about the T/C (dose: 7.5 mg/kg/injection, schedule: Q01DX Z (ip), vehicle: carboxymethylcellulose (CMC)) of the same compound?
A: 229 % of control

Q: And the T/C (dose: 18.0 mg/kg/injection, schedule: Q01DX001 (ip), vehicle: carboxymethylcellulose (CMC))?
A: 152 % of control

Q: What about the T/C (dose: 25.0 mg/kg/injection, schedule: Q01DX Z (oral), vehicle: carboxymethylcellulose (CMC)) of the same compound?
A: 101 % of control

Q: And the T/C (dose: 26.0 mg/kg/injection, schedule: Q01DX001 (ip), vehicle: carboxymethylcellulose (CMC))?
A: 150 % of control

Q: What about the T/C (dose: 26.0 mg/kg/injection, schedule: Q01DX001 (ip), vehicle: other) of the same compound?
A: 154 % of control

Q: What about the T/C (dose: 40.0 mg/kg/injection, schedule: Q01DX001 (ip), vehicle: carboxymethylcellulose (CMC)) of the same compound?
A: 150 % of control and 162 % of control

Q: What about the T/C (dose: 40.0 mg/kg/injection, schedule: Q01DX001 (ip), vehicle: other) of the same compound?
A: 171 % of control

Q: And the T/C (dose: 50.0 mg/kg/injection, schedule: Q01DX Z (oral), vehicle: carboxymethylcellulose (CMC))?
A: 98 % of control

Q: And the T/C (dose: 60.0 mg/kg/injection, schedule: Q01DX001 (ip), vehicle: carboxymethylcellulose (CMC))?
A: 173 % of control and 200 % of control

Q: What about the T/C (dose: 60.0 mg/kg/injection, schedule: Q01DX001 (ip), vehicle: other) of the same compound?
A: 185 % of control

Q: What about the T/C (dose: 80.0 mg/kg/injection, schedule: Q01DX001 (ip), vehicle: carboxymethylcellulose (CMC)) of the same compound?
A: 236 % of control

Q: What about the T/C (dose: 100.0 mg/kg/injection, schedule: Q01DX Z (oral), vehicle: carboxymethylcellulose (CMC)) of the same compound?
A: 104 % of control

Q: And the T/C (dose: 200.0 mg/kg/injection, schedule: Q01DX Z (oral), vehicle: carboxymethylcellulose (CMC))?
A: 101 % of control

Q: What does the source list for `COP(=S)(N/N=C/c1ccccn1)OC`?
A: T/C [1]: 106 % of control; T/C [2]: 97 % of control; T/C [3]: 108 % of control

Q: `O=C1NC(=O)C(c2cc(Cl)co2)N1` (configuration not stated) was tested. Which T/C (dose: 100.0 mg/kg/injection, schedule: Q04DX003 (ip), vehicle: Klucel (hydroxypropylcellulose) (HPC)) did it give?
A: 105 % of control

Q: And the T/C (dose: 200.0 mg/kg/injection, schedule: Q04DX003 (ip), vehicle: Klucel (hydroxypropylcellulose) (HPC))?
A: 108 % of control

Q: What about the T/C (dose: 400.0 mg/kg/injection, schedule: Q04DX003 (ip), vehicle: Klucel (hydroxypropylcellulose) (HPC)) of the same compound?
A: 101 % of control

Q: How did the T/C (dose: 16.0 mg/kg/injection, schedule: Q01DX Z (ip), vehicle: carboxymethylcellulose (CMC)) turn out when `CN(C)[C@@H]1C(=O)C(C(=O)NCc2nc3[nH]cnc(=S)c3[nH]2)=C(O)[C@@]2(O)C(=O)C3=C(O)c4c(O)cccc4[C@@](C)(O)[C@H]3C[C@@H]12` was run?
A: 107 % of control

Q: What about the T/C (dose: 32.0 mg/kg/injection, schedule: Q01DX Z (ip), vehicle: carboxymethylcellulose (CMC)) of the same compound?
A: 119 % of control

Q: And the T/C (dose: 56.0 mg/kg/injection, schedule: Q01DX Z (ip), vehicle: carboxymethylcellulose (CMC))?
A: 103 % of control

Q: And the T/C (dose: 64.0 mg/kg/injection, schedule: Q01DX Z (ip), vehicle: carboxymethylcellulose (CMC))?
A: 112 % of control

Q: What about the T/C (dose: 128.0 mg/kg/injection, schedule: Q01DX Z (ip), vehicle: carboxymethylcellulose (CMC)) of the same compound?
A: 150 % of control

Q: What about the T/C (dose: 192.0 mg/kg/injection, schedule: Q01DX Z (ip), vehicle: carboxymethylcellulose (CMC)) of the same compound?
A: 179 % of control

Q: What does the source list for `ClCCOC(OCCCl)OCCCl`?
A: T/C (dose: 100.0 mg/kg/injection, schedule: Q01DX009 (ip), vehicle: saline with Tween-80): 105 % of control; T/C [1]: 103 % of control; T/C (dose: 200.0 mg/kg/injection, schedule: Q01DX009 (ip), vehicle: saline with Tween-80): 87 % of control; T/C [2]: 104 % of control; T/C [3]: 95 % of control

Q: With `NC(=S)N/N=C/c1ccc([N+](=O)[O-])cc1` as the compound, how does the T/C (dose: 12.5 mg/kg/injection, schedule: Q01DX001 (ip), vehicle: saline with Tween-80) read?
A: 95 % of control

Q: What about the T/C (dose: 25.0 mg/kg/injection, schedule: Q01DX001 (ip), vehicle: saline with Tween-80) of the same compound?
A: 95 % of control

Q: What about the T/C (dose: 50.0 mg/kg/injection, schedule: Q01DX001 (ip), vehicle: saline with Tween-80) of the same compound?
A: 91 % of control
